Test results taken from publication PMC7377239, “Cardiovascular Effects of Polychlorinated Biphenyls and Their Major Metabolites” (Environmental Health Perspectives, 2020).
Like-named read-outs stand apart in the source and are kept apart here.

Tested on: HUVECs
Test: Tube formation (tubulogenesis) assay in HUVECs, 18 h
Format: cell-based, human
Conditions: for activity at 0.01 µM / activity at 0.1 µM / activity at 1 µM / activity at 10 µM / activity at 100 µM / minimal effective concentration: Homo sapiens, HUVEC, 18 h
Summary of the method: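 HUVECs (passage 1–5) seeded on reduced-growth-factor basement membrane and exposed to compounds overnight at 37°C, 5% CO2, in 2× maintenance medium with 12.5 ng/mL VEGF; 0.5% DMSO vehicle. Calcein AM-stained tube networks imaged and analysed; vehicle-normalized readouts fit to four-parameter logistic, POD set at one SD of vehicle means.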

[1] = HUVECs, 0.01 µM, 0.00 µM = 100.00, read-out: huvec.mtl.18hr
[2] = HUVECs, 0.01 µM, 0.00 µM = 100.00, read-out: huvec.tlps.18hr
[3] = HUVECs, 0.01 µM, 0.00 µM = 100.00, read-out: huvec.tta.18hr
[4] = HUVECs, 0.01 µM, 0.00 µM = 100.00, read-out: huvec.ttl.18hr
[5] = HUVECs, 0.10 µM, 0.00 µM = 100.00, read-out: huvec.mtl.18hr
[6] = HUVECs, 0.10 µM, 0.00 µM = 100.00, read-out: huvec.tlps.18hr
[7] = HUVECs, 0.10 µM, 0.00 µM = 100.00, read-out: huvec.tta.18hr
[8] = HUVECs, 0.10 µM, 0.00 µM = 100.00, read-out: huvec.ttl.18hr
[9] = HUVECs, 1.00 µM, 0.00 µM = 100.00, read-out: huvec.mtl.18hr
[10] = HUVECs, 1.00 µM, 0.00 µM = 100.00, read-out: huvec.tlps.18hr
[11] = HUVECs, 1.00 µM, 0.00 µM = 100.00, read-out: huvec.tta.18hr
[12] = HUVECs, 1.00 µM, 0.00 µM = 100.00, read-out: huvec.ttl.18hr
[13] = HUVECs, 10.00 µM, 0.00 µM = 100.00, read-out: huvec.mtl.18hr
[14] = HUVECs, 10.00 µM, 0.00 µM = 100.00, read-out: huvec.tlps.18hr
[15] = HUVECs, 10.00 µM, 0.00 µM = 100.00, read-out: huvec.tta.18hr
[16] = HUVECs, 10.00 µM, 0.00 µM = 100.00, read-out: huvec.ttl.18hr
[17] = HUVECs, 100.00 µM, 0.00 µM = 100.00, read-out: huvec.mtl.18hr
[18] = HUVECs, 100.00 µM, 0.00 µM = 100.00, read-out: huvec.tlps.18hr
[19] = HUVECs, 100.00 µM, 0.00 µM = 100.00, read-out: huvec.tta.18hr
[20] = HUVECs, 100.00 µM, 0.00 µM = 100.00, read-out: huvec.ttl.18hr
[21] = HUVECs, top concentration 100.00 µM, read-out: huvec.mtl.18hr POD
[22] = HUVECs, top concentration 100.00 µM, read-out: huvec.tlps.18hr POD
[23] = HUVECs, top concentration 100.00 µM, read-out: huvec.tta.18hr POD
[24] = HUVECs, top concentration 100.00 µM, read-out: huvec.ttl.18hr POD
[25] = HUVECs tube formation, MAX 100.00, read-out: huvec.mtl.18hr POD
[26] = HUVECs tube formation, MAX 100.00, read-out: huvec.tta.18hr POD
[27] = HUVECs tube formation, MAX 100.00, read-out: huvec.ttl.18hr POD
[28] = HUVECs tube formation, concentration 0.01 µM, 0.00 µM = 100.00, read-out: huvec.mtl.18hr
[29] = HUVECs tube formation, concentration 0.01 µM, 0.00 µM = 100.00, read-out: huvec.tlps.18hr
[30] = HUVECs tube formation, concentration 0.01 µM, 0.00 µM = 100.00, read-out: huvec.ttl.18hr
[31] = HUVECs tube formation, concentration 0.10 µM, 0.00 µM = 100.00, read-out: huvec.mtl.18hr
[32] = HUVECs tube formation, concentration 0.10 µM, 0.00 µM = 100.00, read-out: huvec.tta.18hr
[33] = HUVECs tube formation, concentration 0.10 µM, 0.00 µM = 100.00, read-out: huvec.ttl.18hr
[34] = HUVECs tube formation, concentration 1.00 µM, 0.00 µM = 100.00, read-out: huvec.mtl.18hr
[35] = HUVECs tube formation, concentration 1.00 µM, 0.00 µM = 100.00, read-out: huvec.tlps.18hr
[36] = HUVECs tube formation, concentration 1.00 µM, 0.00 µM = 100.00, read-out: huvec.tta.18hr
[37] = HUVECs tube formation, concentration 1.00 µM, 0.00 µM = 100.00, read-out: huvec.ttl.18hr
[38] = HUVECs tube formation, concentration 10.00 µM, 0.00 µM = 100.00, read-out: huvec.mtl.18hr
[39] = HUVECs tube formation, concentration 10.00 µM, 0.00 µM = 100.00, read-out: huvec.tlps.18hr
[40] = HUVECs tube formation, concentration 10.00 µM, 0.00 µM = 100.00, read-out: huvec.tta.18hr
[41] = HUVECs tube formation, concentration 10.00 µM, 0.00 µM = 100.00, read-out: huvec.ttl.18hr
[42] = HUVECs tube formation, concentration 100.00 µM, 0.00 µM = 100.00, read-out: huvec.mtl.18hr
[43] = HUVECs tube formation, concentration 100.00 µM, 0.00 µM = 100.00, read-out: huvec.tlps.18hr
[44] = HUVECs tube formation, concentration 100.00 µM, 0.00 µM = 100.00, read-out: huvec.ttl.18hr
[45] = tube formation mtl, read-out: POD huvec.mtl.18hr
[46] = tube formation tta, read-out: POD huvec.tta.18hr
[47] = tube formation ttl, read-out: POD huvec.ttl.18hr

`COc1ccc(-c2ccc(Cl)cc2)cc1` [4'-OMe PCB3] showed an activity at 0.01 µM [1] of 112%, an activity at 0.01 µM [2] of 133% and an activity at 0.01 µM [3] of 123%. For the same compound, the activity at 0.01 µM [4] was 113%, the activity at 0.1 µM [5] was 111% and the activity at 0.1 µM [6] was 139%. The activity at 0.1 µM [7] was 131%, the activity at 0.1 µM [8] was 125% and the activity at 1 µM [9] was 103%. It also gave an activity at 1 µM [10] of 128%, an activity at 1 µM [11] of 116% and an activity at 1 µM [12] of 111%. The activity at 10 µM [13] was 81.4%, the activity at 10 µM [14] was 122% and the activity at 10 µM [15] was 75.2%. The activity at 10 µM [16] was 75.8%, the activity at 100 µM [17] was 58.6% and the activity at 100 µM [18] was 37.2%. For the same compound, the activity at 100 µM [19] was 51.7%, the activity at 100 µM [20] was 48.9% and the minimal effective concentration [21] was 7.13 µM. For the same compound, the minimal effective concentration [22] was 49.5 µM, the minimal effective concentration [23] was 8.82 µM and the minimal effective concentration [24] was 7.82 µM.

With `COc1ccc(-c2cccc(Cl)c2)cc1Cl` [4-OMe PCB11] the activity at 0.01 µM [1] was 124%, the activity at 0.01 µM [2] was 137% and the activity at 0.01 µM [3] was 110%. The activity at 0.01 µM [4] was 93.8%, the activity at 0.1 µM [5] was 107% and the activity at 0.1 µM [6] was 117%. It also gave an activity at 0.1 µM [7] of 99.7%, an activity at 0.1 µM [8] of 89.8% and an activity at 1 µM [9] of 102%. The activity at 1 µM [10] was 99.7%, the activity at 1 µM [11] was 108% and the activity at 1 µM [12] was 99.4%. It also gave an activity at 10 µM [13] of 89.2%, an activity at 10 µM [14] of 97.9% and an activity at 10 µM [15] of 78.8%. For the same compound, the activity at 10 µM [16] was 67.3%, the activity at 100 µM [17] was 71% and the activity at 100 µM [18] was 60.6%. It also gave an activity at 100 µM [19] of 70.4%, an activity at 100 µM [20] of 60.2% and a minimal effective concentration [21] of 9.33 µM. The minimal effective concentration [22] was 25.8 µM, the minimal effective concentration [23] was 100 µM and the minimal effective concentration [24] was 1.22 µM.

`Clc1ccc(-c2cc(Cl)c(Cl)c(Cl)c2)cc1Cl` [PCB126] was tested, and the minimal effective concentration [25] was 100 µM, the minimal effective concentration (HUVECs tube formation, MAX 100.00, read-out: huvec.tlps.18hr POD) was 100 µM and the minimal effective concentration [26] was 100 µM. It also gave a minimal effective concentration [27] of 100 µM, an activity at 0.01 µM [28] of 93.6% and an activity at 0.01 µM [29] of 51.1%. It also gave an activity at 0.01 µM (HUVECs tube formation, concentration 0.01 µM, 0.00 µM = 100.00, read-out: huvec.tta.18hr) of 51.1%, an activity at 0.01 µM [30] of 53.8% and an activity at 0.1 µM [31] of 98.7%. For the same compound, the activity at 0.1 µM (HUVECs tube formation, concentration 0.10 µM, 0.00 µM = 100.00, read-out: huvec.tlps.18hr) was 67.7%, the activity at 0.1 µM [32] was 80.9% and the activity at 0.1 µM [33] was 84.3%. For the same compound, the activity at 1 µM [34] was 87.8%, the activity at 1 µM [35] was 61.4% and the activity at 1 µM [36] was 77.3%. For the same compound, the activity at 1 µM [37] was 83.6%, the activity at 10 µM [38] was 89.6% and the activity at 10 µM [39] was 52.3%. It also gave an activity at 10 µM [40] of 94.3%, an activity at 10 µM [41] of 100% and an activity at 100 µM [42] of 83.2%. It also gave an activity at 100 µM [43] of 59.4%, an activity at 100 µM (HUVECs tube formation, concentration 100.00 µM, 0.00 µM = 100.00, read-out: huvec.tta.18hr) of 92.7% and an activity at 100 µM [44] of 88.9%.

With `Clc1ccc(-c2ccccc2)cc1` [PCB 3, 4-chlorobiphenyl] the minimal effective concentration [45] was 25.3 µM, the minimal effective concentration (tube formation tlps, read-out: POD huvec.tlps.18hr) was 100 µM and the minimal effective concentration [46] was 0.67 µM. It also gave a minimal effective concentration [47] of 0.7 µM.

`Clc1ccc(Cl)c(-c2c(Cl)ccc(Cl)c2Cl)c1Cl` [(+)-PCB 136, 2,2′,3,3′,6,6′-hexachlorobiphenyl] was tested, and the huvec.tta.18hr (HUVECs tube formation, concentration 0.01 µM, 0.00 µM = 100.00) was 108.86, the huvec.tlps.18hr (HUVECs tube formation, concentration 0.10 µM, 0.00 µM = 100.00) was 71.77 and the huvec.tta.18hr (HUVECs tube formation, concentration 100.00 µM, 0.00 µM = 100.00) was 92.04. The minimal effective concentration [45] was 13.4 µM, the minimal effective concentration [46] was 100 µM and the minimal effective concentration [47] was 100 µM. The minimal effective concentration [25] was 13.4 µM, the minimal effective concentration [26] was 100 µM and the minimal effective concentration [27] was 100 µM. The activity at 0.01 µM [28] was 92.2%, the activity at 0.01 µM [29] was 82.7% and the activity at 0.01 µM [30] was 105%. The activity at 0.1 µM [31] was 93.1%, the activity at 0.1 µM [32] was 107% and the activity at 0.1 µM [33] was 105%. It also gave an activity at 1 µM [34] of 96.3%, an activity at 1 µM [35] of 98.7% and an activity at 1 µM [36] of 102%. For the same compound, the activity at 1 µM [37] was 99.6%, the activity at 10 µM [38] was 92.5% and the activity at 10 µM [39] was 100%. It also gave an activity at 10 µM [40] of 112%, an activity at 10 µM [41] of 104% and an activity at 100 µM [42] of 64.5%. The activity at 100 µM [43] was 73.3% and the activity at 100 µM [44] was 83.9%.

For `Clc1cccc(-c2cccc(Cl)c2)c1` [PCB11], the activity at 0.01 µM [1] was 107%, the activity at 0.01 µM [2] was 122% and the activity at 0.01 µM [3] was 138%. It also gave an activity at 0.01 µM [4] of 122%, an activity at 0.1 µM [5] of 113% and an activity at 0.1 µM [6] of 126%. For the same compound, the activity at 0.1 µM [7] was 133%, the activity at 0.1 µM [8] was 124% and the activity at 1 µM [9] was 109%. The activity at 1 µM [10] was 130%, the activity at 1 µM [11] was 157% and the activity at 1 µM [12] was 140%. It also gave an activity at 10 µM [13] of 97.8%, an activity at 10 µM [14] of 94.6% and an activity at 10 µM [15] of 86.1%. The activity at 10 µM [16] was 87.2%, the activity at 100 µM [17] was 81.4% and the activity at 100 µM [18] was 77.5%. The activity at 100 µM [19] was 85%, the activity at 100 µM [20] was 78.8% and the minimal effective concentration [21] was 100 µM. It also gave a minimal effective concentration [22] of 41.8 µM, a minimal effective concentration [23] of 100 µM and a minimal effective concentration [24] of 100 µM.
